For this assay, the target named is T1, recombinant human Flag-tagged PARP7 (amino acids 456-657) (Homo sapiens, UniProt Q7Z3E1).
T1 construct: recombinant human Flag-tagged PARP7 (amino acids 456-657)
T1 sequence (Q7Z3E1 456-657): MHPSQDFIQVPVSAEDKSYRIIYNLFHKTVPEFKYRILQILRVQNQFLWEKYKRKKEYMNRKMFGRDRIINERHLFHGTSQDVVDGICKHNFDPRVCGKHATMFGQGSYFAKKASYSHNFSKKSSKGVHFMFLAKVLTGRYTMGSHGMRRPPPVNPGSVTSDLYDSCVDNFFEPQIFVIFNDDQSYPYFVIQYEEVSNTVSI
Briefly: PARP7 biochemical DELFIA assay (auto-MARylation). To be noted: DELFIA readout, IC50 class. The essentials:
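Flag-PARP7 (456-657), 12.5-37.5 nM stock, captured on anti-FLAG wells, preincubated 30 min with compound, then auto-MARylated with biotin-NAD+ (15 μM stock) in HEPES pH 7.5/NaCl/DTT/BSA/Tween for 2-3 h at room temperature. NAD+ quench; Eu-streptavidin DELFIA read, Ex337/Em620 nm.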

pIC50: −log10 of the molar value. Bounds are passed on as bounds.

In patent US20240217968A1, “PHARMACEUTICAL COMPOUND” (DUKE STREET BIO LIMITED, priority 2021, published 2024) one finds IC50 data, which are given here for 57 molecules.

Usually pIC50 stands for the negative decadic logarithm of the IC50, by convention in mol/L.

Consider `CN(C(=O)COCCn1cc(C(F)(F)F)c2c(=O)[nH]ncc21)C1CCN(c2ncc(C(F)(F)F)cn2)CC1` [Compound 385], for which the negative logarithm of the IC50 (pIC50) is at least 7.00.

Regarding `CC(COCCC(=O)N1CCN(c2ncc(C(F)(F)F)cn2)CC1)n1nc(C(F)(F)F)c2c(=O)[nH]ccc21` (stereo not drawn) [Compound 388], the pIC50 is at least 7.00.

Regarding `CC(COCCC(=O)N1CCN(c2ncc(C(F)(F)F)cn2)CC1)n1nc(C(F)(F)F)c2c(=O)[nH]ccc21` (stereo not drawn) [Compound 389], the negative-log IC50 (pIC50) is at least 7.00.

As to `O=C(CCOCCn1nc(C(F)(F)F)c2c(=O)[nH]ncc21)N1CCN(c2nnc(C(F)(F)F)[nH]2)CC1` [Compound 391], the pIC50 is at least 7.00.

`CC(COCCC(=O)N1CCN(c2nnc(C(F)(F)F)[nH]2)CC1)n1nc(C(F)(F)F)c2c(=O)[nH]ncc21` (stereo not drawn) [Compound 392]: the pIC50 is 6.00 to 7.00.

Consider `O=C(CCOCCn1nc(C(F)(F)F)c2c(=O)[nH]ncc21)N1CCN(c2ncc3c(n2)NCCC3)CC1` [Compound 394], for which the pIC50 was at least 7.00.

Consider `CC(COCCC(=O)N1CCN(c2ncc(C(F)(F)F)cn2)CC1)n1c(=O)n(C)c2c(=O)[nH]ncc21` (stereo not drawn) [Compound 397], for which the pIC50 is at least 7.00.

In the case of `CC(COCCC(=O)N1CCN(c2ncc(C(F)(F)F)cn2)CC1)n1c(=O)n(C)c2c(=O)[nH]ncc21` (stereo not drawn) [Compound 398], the negative logarithm of the IC50 (pIC50) was at least 7.00.

`CC(COCCC(=O)N1CCN(c2ncc(C(F)(F)F)cn2)CC1)c1ccc(Cl)c2c(=O)[nH]ncc12` (stereo not drawn) [Compound 399]: the pIC50 was 6.00 to 7.00.

With `CC(COCCC(=O)N1CCN(c2ncc(C(F)(F)F)cn2)CC1)c1ccc(Cl)c2c(=O)[nH]ncc12` (stereo not drawn) [Compound 400], the negative logarithm of the IC50 (pIC50) is at least 7.00.

Take `O=C(CCOCCn1nc(C(F)(F)F)c2c(=O)[nH]c(=O)[nH]c21)N1CCN(c2ncc(C(F)(F)F)cn2)CC1` [Compound 401]: the pIC50 was at least 7.00.

As to `Cc1nn(CCOCCC(=O)N2CCN(c3ncc(C(F)(F)F)cn3)CC2)c2[nH]c(=O)[nH]c(=O)c12` [Compound 402], the negative logarithm of the IC50 (pIC50) was at least 7.00.

`O=C(CCOCCn1cc(C(F)(F)F)c2c(=O)[nH]c(=O)[nH]c21)N1CCN(c2ncc(C(F)(F)F)cn2)CC1` [Compound 403]: the pIC50 was at least 7.00.

`Cc1cn(CCOCCC(=O)N2CCN(c3ncc(C(F)(F)F)cn3)CC2)c2[nH]c(=O)[nH]c(=O)c12` [Compound 404]: the pIC50 was at least 7.00.

`O=C(c1cccc(Cn2nc(C(F)(F)F)c3c(=O)[nH]ncc32)c1)N1CCN(c2ncc(C(F)(F)F)cn2)CC1` [Compound 407]: the negative logarithm of the IC50 (pIC50) is at least 7.00.

As for `[2H]C([2H])(Cn1nc(C(F)(F)F)c2c(=O)[nH]ncc21)OCCC(=O)N1CCN(c2ncc(C#N)cn2)CC1` [Compound 408], the negative logarithm of the IC50 (pIC50) is at least 7.00.

For `[2H]C([2H])(Cn1nc(C(F)(F)F)c2c(=O)[nH]ncc21)OCCC(=O)N1CCN(c2ncc(C(F)(F)F)cn2)CC1` [Compound 409], the pIC50 is at least 7.00.

Take `O=C(CCOCCc1c(Cl)ccc2c(=O)[nH]ncc12)N1CCN(c2ncc(C(F)(F)F)cn2)CC1` [Compound 410]: the pIC50 was at least 7.00.

Turning to `CC(COCCn1cc(C(F)(F)F)c2c(=O)[nH]ncc21)C(=O)N1CCN(c2ncc(C(F)(F)F)cn2)CC1` (stereo not drawn) [Compound 412], the negative logarithm of the IC50 (pIC50) was at least 7.00.

In the case of `O=C(CCOCCn1c(=O)ccc2c(=O)[nH]ncc21)N1CCN(c2ncc(C(F)(F)F)cn2)CC1` [Compound 413], the negative logarithm of the IC50 (pIC50) is at least 7.00.

As to `CC(COCCC(=O)N1CCN(c2ncc(C#N)cn2)CC1)c1ccc(Cl)c2c(=O)[nH]ncc12` (stereo not drawn) [Compound 415], the pIC50 was at least 7.00.

In the case of `CC(COCCC(=O)N1CCN(c2ccc(C#N)cn2)CC1)c1ccc(Cl)c2c(=O)[nH]ncc12` (stereo not drawn) [Compound 417], the negative logarithm of the IC50 (pIC50) was at least 7.00.

For `[2H]C([2H])(OCCC(=O)N1CCN(c2ncc(C(F)(F)F)cn2)CC1)C(C)n1nc(C(F)(F)F)c2c(=O)[nH]ncc21` (stereo not drawn) [Compound 422], the negative logarithm of the IC50 (pIC50) was at least 7.00.

As for `O=C(CCOCC(F)(F)c1cccc2c(=O)[nH]ncc12)N1CCN(c2ncc(C(F)(F)F)cn2)CC1` [Compound 424], the negative-log IC50 (pIC50) was at least 7.00.

On to `CC(C)(COCCC(=O)N1CCN(c2ncc(C(F)(F)F)cn2)CC1)c1cccc2c(=O)[nH]ncc12` [Compound 425], for which the pIC50 was 6.00 to 7.00.

Regarding `O=C(CCOCC(c1cccc2c(=O)[nH]ncc12)C(F)(F)F)N1CCN(c2ncc(C(F)(F)F)cn2)CC1` (stereo not drawn) [Compound 426], the pIC50 is 5.00 to 6.00.

Regarding `N#Cc1nn(CCOCCC(=O)N2CCN(c3ncc(C(F)(F)F)cn3)CC2)c2cn[nH]c(=O)c12` [Compound 428], the pIC50 was at least 7.00.

Regarding `O=C(CCOCCn1nc(C(F)(F)F)c2c(=O)[nH]ncc21)N1CCN(C2CN(CC(F)(F)F)C2)CC1` [Compound 433], the pIC50 was 5.00 to 6.00.

Take `O=C(CCOCCn1nc(C(F)(F)F)c2c(=O)[nH]ncc21)N1CCN(c2nnc(C(F)(F)F)o2)CC1` [Compound 434]: the pIC50 is at least 7.00.

As to `CC(COCCC(=O)N1CCN(c2ncc(C(F)(F)F)cn2)CC1)n1nc(C(F)F)c2c(=O)[nH]ncc21` (stereo not drawn) [Compound 435], the negative logarithm of the IC50 (pIC50) was at least 7.00.

For `CC(COCCC(=O)N1CCN(c2ccc(C#N)cn2)CC1)n1nc(C(F)F)c2c(=O)[nH]ncc21` (stereo not drawn) [Compound 438], the negative-log IC50 (pIC50) was at least 7.00.

For `CC(COCCC(=O)N1CCN(c2ncc(C#N)cn2)CC1)n1cc(C(F)F)c2c(=O)[nH]ncc21` (stereo not drawn) [Compound 440], the pIC50 is at least 7.00.

In the case of `O=C(OCCCCn1nc(C(F)(F)F)c2c(=O)[nH]ncc21)N1CCN(c2ncc(C(F)(F)F)cn2)CC1` [Compound 441], the pIC50 was at least 7.00.

As for `O=C(Cn1nc(C(F)(F)F)c2c(=O)[nH]ncc21)N1CCC(C(=O)N2CCN(c3ncc(C(F)(F)F)cn3)CC2)C1` (stereo not drawn) [Compound 442], the pIC50 is 5.00 to 6.00.

Regarding `O=C(Cn1nc(C(F)(F)F)c2c(=O)[nH]ncc21)N1CCC(C(=O)N2CCN(c3ncc(C(F)(F)F)cn3)CC2)C1` (stereo not drawn) [Compound 443], the pIC50 was 5.00 to 6.00.

For the molecule `N#Cc1ccc(N2CCN(C(=O)CCOCC(F)(F)c3cccc4c(=O)[nH]ncc34)CC2)nc1` [Compound 446], the negative logarithm of the IC50 (pIC50) was at least 7.00.

Consider `O=c1[nH]ncc2c1c(C(F)(F)F)nn2CCOCCS(=O)(=O)N1CCN(c2ncc(C(F)(F)F)cn2)CC1` [Compound 447], for which the pIC50 was at least 7.00.

Consider `CC(COCCC(=O)N1CCN(c2ccc(C#N)cn2)CC1)n1cc(C(F)F)c2c(=O)[nH]ncc21` (stereo not drawn) [Compound 449], for which the pIC50 was at least 7.00.

`CC(COCCC(=O)N1CCN(c2ncc(Cl)cn2)CC1)n1cc(C(F)F)c2c(=O)[nH]ncc21` (stereo not drawn) [Compound 450]: the pIC50 is at least 7.00.

On to `CC(COCCC(=O)N1CCN(c2ncc(Cl)cn2)CC1)n1cc(C(F)F)c2c(=O)[nH]ncc21` (stereo not drawn) [Compound 451], for which the pIC50 is at least 7.00.

For the molecule `CC(CCOCC(=O)N1CCN(c2ncc(Cl)cn2)CC1)n1nc(C(F)(F)F)c2c(=O)[nH]ncc21` (stereo not drawn) [Compound 452], the negative logarithm of the IC50 (pIC50) was at least 7.00.

Consider `CC(CCOCC(=O)N1CCN(c2ncc(Cl)cn2)CC1)n1nc(C(F)(F)F)c2c(=O)[nH]ncc21` (stereo not drawn) [Compound 453], for which the pIC50 is at least 7.00.

For `CC(CCOCC(=O)N1CCN(c2ncc(C(F)(F)F)cn2)CC1)n1cc(C(F)(F)F)c2c(=O)[nH]ncc21` (stereo not drawn) [Compound 454], the negative logarithm of the IC50 (pIC50) was at least 7.00.

In the case of `CC(COCC(=O)NC1CCN(c2ncc(C(F)(F)F)cn2)CC1)n1cc(C(F)(F)F)c2c(=O)[nH]ncc21` (stereo not drawn) [Compound 458], the negative logarithm of the IC50 (pIC50) is at least 7.00.

In the case of `CC(COCC(=O)N(C)C1CCN(c2ncc(C(F)(F)F)cn2)CC1)n1cc(C(F)(F)F)c2c(=O)[nH]ncc21` (stereo not drawn) [Compound 463], the pIC50 was at least 7.00.

For `CC(COCCC(=O)N1CCN(c2ncc(C#N)cn2)CC1)n1cc(C(F)(F)F)c2c(=O)[nH]ncc21` (stereo not drawn) [Compound 465], the pIC50 is at least 7.00.

For the molecule `Cc1cc(=O)n(CCOCCC(=O)N2CCN(c3ncc(C(F)(F)F)cn3)CC2)c2cn[nH]c(=O)c12` [Compound 470, 4-methyl-1-(2-(3-oxo-3-(4-(5-(trifluoromethyl)pyrimidin-2-yl)piperazin-1-yl)propoxy)ethyl)pyrido[2,3-d]pyridazine-2,5(1H,6H)-dione], the pIC50 was at least 7.00.

Regarding `O=C(CCOCCn1nc(C(F)(F)F)c2c(=O)[nH]ncc21)N1CCN(c2cc(C(F)(F)F)[nH]n2)CC1` [Compound 471], the pIC50 is at least 7.00.

Consider `Cc1c(C(F)(F)F)c2c(=O)[nH]ncc2n1C(C)COCCC(=O)N1CCN(c2ncc(C(F)(F)F)cn2)CC1` (stereo not drawn) [Compound 474], for which the negative-log IC50 (pIC50) is at least 7.00.

For `Cc1c(C(F)(F)F)c2c(=O)[nH]ncc2n1C(C)COCCC(=O)N1CCN(c2ncc(C(F)(F)F)cn2)CC1` (stereo not drawn) [Compound 475], the negative logarithm of the IC50 (pIC50) was at least 7.00.

On to `O=C(c1cccc(Cn2cc(C(F)(F)F)c3c(=O)[nH]ncc32)c1)N1CCN(c2ncc(C(F)(F)F)cn2)CC1` [Compound 478], for which the pIC50 is at least 7.00.

Turning to `CC(COCCC(=O)N1CCN(c2ncc(C(C)(F)F)cn2)CC1)n1cc(C(F)(F)F)c2c(=O)[nH]ncc21` (stereo not drawn) [Compound 481], the pIC50 was at least 7.00.

Consider `CC(COCCC(=O)N1CCN(c2ccc(C(C)(F)F)cn2)CC1)n1cc(C(F)(F)F)c2c(=O)[nH]ncc21` (stereo not drawn) [Compound 483], for which the pIC50 was at least 7.00.

In the case of `N#Cc1cnc(N2CCN(C(=O)CCOCCn3cc(C(F)(F)F)c4c(=O)[nH]ncc43)CC2)s1` [Compound 487], the negative-log IC50 (pIC50) is at least 7.00.

Turning to `O=C(CCOCCn1nc(C(F)(F)F)c2c(=O)[nH]ncc21)N1CCN(c2ncc(C(F)(F)F)[nH]2)CC1` [Compound 488], the pIC50 is at least 7.00.

Turning to `CC(COCCC(=O)N1CCN(c2cc(C(F)(F)F)[nH]n2)CC1)n1nc(C(F)(F)F)c2c(=O)[nH]ncc21` (stereo not drawn) [Compound 489], the negative-log IC50 (pIC50) is at least 7.00.

Regarding `O=C(OCC1CC1Cn1nc(C(F)(F)F)c2c(=O)[nH]ncc21)N1CCN(c2ncc(C(F)(F)F)cn2)CC1` (stereo not drawn) [Compound 492], the pIC50 was at least 7.00.
